These results are taken from PMC3538380 (Stem cells (Dayton, Ohio), 2013).

One assay concerns the target GAPDH in GSC11 cells (Homo sapiens, UniProt P04406). Description: GAPDH activity in lysate of treated cells, NADH fluorescence. In kind it is cell-based.
The target of assay [1] is purified GAPDH enzyme from rabbit muscle (Oryctolagus cuniculus, UniProt P46406). Kind of assay: GAPDH enzymatic assay, NADH fluorescence. In kind it is biochemical.
Chain of purified GAPDH enzyme from rabbit muscle (P46406 whole entry): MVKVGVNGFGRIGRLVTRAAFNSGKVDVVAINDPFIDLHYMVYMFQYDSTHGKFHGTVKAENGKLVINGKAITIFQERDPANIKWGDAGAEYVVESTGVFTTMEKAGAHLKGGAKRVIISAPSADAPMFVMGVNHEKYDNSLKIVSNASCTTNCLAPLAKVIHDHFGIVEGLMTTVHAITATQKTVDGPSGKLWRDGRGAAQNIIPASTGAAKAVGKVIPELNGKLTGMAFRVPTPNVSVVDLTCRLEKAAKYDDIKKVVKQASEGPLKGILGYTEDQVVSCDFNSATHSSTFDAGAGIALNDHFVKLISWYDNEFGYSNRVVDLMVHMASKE

Chain of GAPDH in GSC11 cells (P04406 2-335): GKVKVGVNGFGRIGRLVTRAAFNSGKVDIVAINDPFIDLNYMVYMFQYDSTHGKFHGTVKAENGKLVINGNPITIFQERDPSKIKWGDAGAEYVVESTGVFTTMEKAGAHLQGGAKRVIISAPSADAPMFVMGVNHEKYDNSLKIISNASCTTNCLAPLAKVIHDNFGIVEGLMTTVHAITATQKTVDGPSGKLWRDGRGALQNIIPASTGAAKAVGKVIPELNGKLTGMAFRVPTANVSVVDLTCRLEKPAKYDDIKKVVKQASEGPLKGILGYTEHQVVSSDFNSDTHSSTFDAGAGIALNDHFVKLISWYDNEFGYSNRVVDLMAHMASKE

As for `CCCOC(=O)C(=O)CBr` [3-BrOP, 3-bromo-2-oxopropionate-1-propyl ester], the inhibition at 10 µM on GAPDH in GSC11 cells (read-out: % inhibition at 10 μM) was roughly 60%. Further, the IC50 in assay [1] was roughly 10 µM.
Take `O=NN(CCCl)C(=O)NCCCl` [BCNU]: on GAPDH in GSC11 cells (read-out: % inhibition at 200 μM), the inhibition at 200 µM was roughly 60%. This compound displayed a 50% inhibitory concentration (IC50) in assay [1] of roughly 200 µM.
